{"source": "patent US9974767B2", "about": "“Statins in the treatment of muscular dystrophies and myopathies” (University of Washington, priority 2014, dated 2018)", "key": {"[1]": {"system": "immortalized mdx myoblast cell line", "assay": "Differentiation of immortalized mdx myoblasts into myotubes", "type": "cell-based, mouse", "protocol": "However, the statin concentrations required to induce these deleterious effects in vitro are typically 1 μM or greater. These concentrations are considerably (100-1000 times) higher than those found in vivo in mice and humans. […] We then carried out an in vitro experiment using an immortalized mdx myoblast cell line.\nImmortomouse mdx myoblasts were grown on gelatin coated plates and until 70% confluence in DMEM supplemented with 10% HS, 20% FBS, 0.5% chicken embryo extract and 20 units/ml of γ-interferon. […] Myotubes were washed in PBS, fixed in ice-cold methanol for 10 min, and H&E stained. Images of myotubes were taken with a Nikon inverted microscope (W.M. Keck Center, University of Washington)."}, "mdx mice [2]": {"system": "mdx mice", "assay": "TA muscle function in situ (specific force, fatigue, recovery)", "type": "in vivo, mouse", "protocol": "Hindlimb (TA) muscle physiology was measured in situ, which has the advantages of direct nerve stimulation and intact blood circulation. […] We also evaluated muscle fatigue resistance and recovery from fatigue, because this is a major cause of weakness in dystrophic muscle. TA muscle fatigue was assessed after 1 min and 2 min of repetitive tetanic contractions (2 sec apart). […] Recovery from muscle fatigue was measured every 2 min up to 10 min post fatigue.\nMuscle degeneration and loss of function in DMD begins very early in the disease and progressively worsens over time. Consequently, useful therapeutic agents must be effective when administered at various stages of the disease. […] Hindlimb (TA) muscle physiology was measured in situ. This method has the advantages of direct nerve stimulation and intact blood circulation, which provides an essentially in vivo approach for measuring muscle function. Remarkably, specific muscle force increased by 40% (P<0.001) for mdx Sim compared to mdx Con mice, a dramatic increase for a pharmacological agent.\nIn addition to the loss of specific force, increased muscle fatigue and slowed force recovery are also significant causes of muscle weakness in DMD. Muscle fatigue in TA was measured during repetitive tetanic contractions (every 2 seconds) for a total of 2 minutes. For mdx Con mice, force declined rapidly during the early part of the fatigue and then much less steeply for the remainder of the contractions (FIG. 12A). In contrast, the force decline for mdx Sim was very similar to the WT groups, with a slow force drop over the first minute and then a greater decline over the last minute (see FIG. 12B). […] Recovery from fatigue was measured up to 10 min post fatigue (FIG. 12C). […] The cellular mechanisms of muscle fatigue are complex, however ROS are known to be an important cause of force loss during muscle fatigue.\nTibialis anterior (TA) muscle function was measured in situ. Mice were anaesthetized with an intraperitoneal injection of Avertin (625 mg/kg) and placed on a heated metal platform (37° C.). The distal TA tendon was dissected free and sutured to the lever arm of the force and length control system (305C-LR, Aurora Scientific). Muscle contraction was provided by stimulation of the Sciatic nerve using bipolar electrodes, which was kept moist during the experiment with PBS. The knee bone was firmly anchored to the platform via a steel pin. A length-force curve was generated by stimulating the muscle at 120 Hz (200 ms duration), every 90 sec, from short to long muscle lengths. […] Fatigue recovery was measured every 2 min up to 10 min post-fatigue. […] Membranes were incubated with enhanced chemiluminescence (ECL) reagent (Amersham) and bands were detected by the FluorChem M, imaging system (Protein Simple)."}, "mdx mice [3]": {"system": "mdx mice", "assay": "Diaphragm fibrosis (fibronectin immunofluorescence, hydroxyproline assay for collagen I)", "type": "in vivo, mouse", "description": "In order to be a viable treatment approach for DMD, a drug must be efficacious at different stages of the disease and target both skeletal and cardiac muscle. […] Diaphragm force production progressively declines with age in both mdx mice and DMD. […] The replacement of muscle fibers with fibrotic connective tissue is a major cause of impaired muscle force generation in DMD and therefore an important therapeutic target. […] Quantification of total collagen I levels by hydroxyproline assay indicated a 50% reduction in fibrosis for mdx Sim mice.\nThe diaphragm most closely recapitulates the functional deficits and fibrotic deposition that occur in DMD. […] Quantification of total collagen I levels in diaphragm muscles by hydroxyproline assay also indicated a 50% reduction in fibrosis for mdx Sim mice (FIG. 13E).\nMuscles were imbedded in O.C.T compound and frozen in isopentane cooled in liquid nitrogen. […] For fluorescence quantification (CD68, fibronectin and myosin heavy chains), images were converted to grayscale in Image J and a threshold applied to calculate the area of fluorescence as a percent of the total area of the section. Fibers with central nuclei were expressed as a percent of total fibers with detectable nuclei (ie. both central and peripheral).\nTo quantify muscle fibrosis, Collagen I content was measured using the hydroxyproline assay. […]"}}, "data": [{"smiles": "CCC(C)(C)C(=O)O[C@H]1C[C@@H](C)C=C2C=C[C@H](C)[C@H](CC[C@@H]3C[C@@H](O)CC(=O)O3)[C@H]21", "note": "[Simvastatin, simvastatin]", "values": [{"measurement": "muscle differentiation, myotube formation", "setting": "[1]; 50 to 500 nM, 3 days", "value": "appeared similar to untreated cells"}, {"measurement": "doses at which simvastatin became more toxic, number of viable cells decreased", "setting": "[1]; 3 days of treatment", "value": "≥ 1", "unit": "µM"}, {"measurement": "force recovery at 2 min post fatigue", "setting": "mdx mice [2]; mdx Sim", "value": "80.9 % of the initial, pre-fatigue force"}, {"measurement": "force recovery at 10 min post fatigue", "setting": "mdx mice [2]; mdx Sim", "value": 86.9, "unit": "%"}, {"measurement": "increase of hindlimb (TA) specific muscle force", "setting": "mdx mice [2]; mdx Sim vs mdx Con, treatment from 3 to 6 months of age", "value": 40, "unit": "%"}, {"measurement": "TA force after 1 minute of fatigue", "setting": "mdx mice [2]; mdx Sim, tetanic contractions every 2 sec, mdx Con 53%", "value": "68 % of initial force"}, {"measurement": "attenuation of fibrosis, fibronectin immunofluorescence", "setting": "mdx mice [3]; diaphragm sections, old mdx Sim vs mdx Con", "value": 50, "unit": "%"}, {"measurement": "reduction in fibrosis, total collagen I levels by hydroxyproline assay", "setting": "mdx mice [3]; diaphragm, old mdx mice, 2 months treatment", "value": 50, "unit": "%"}]}]}
